Results from US8952024B2, “Herbicidal pyrimidone derivatives” (E I du Pont de Nemours and Company, priority 2009, dated 2015).

Assays:
Assay in all cases: Test B pre-/postemergence plant response
Assay type in all cases: in vivo
[1] = tested on: Italian ryegrass (Lolium multiflorum)
In short: (§1)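 Response scores were assigned visually after 13 to 15 days in a greenhouse, comparing treated pots with controls on a 0–100 scale where 100 denotes complete control. Preemergence treatments went onto freshly seeded loam/sand soil; postemergence treatments onto plants 2 to 18 cm tall.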

[2] = tested on: Surinam grass (Brachiaria decumbens)
In short: as §1

[3] = tested on: bermudagrass (Cynodon dactylon)
In short: as §1

[4] = tested on: blackgrass (Alopecurus myosuroides)
In short: as §1

[5] = tested on: cocklebur (Xanthium strumarium)
In short: as §1

corn (Zea mays) = tested on: corn (Zea mays)
In short: as §1

[6] = tested on: downy bromegrass (Bromus tectorum)
In short: as §1

[7] = tested on: green foxtail (Setaria viridis)
In short: as §1

kochia (Kochia scoparia) = tested on: kochia (Kochia scoparia)
In short: as §1

[8] = tested on: lambsquarters (Chenopodium album)
In short: as §1

[9] = tested on: large crabgrass (Digitaria sanguinalis)
In short: as §1

[10] = tested on: pigweed (Amaranthus retroflexus)
In short: as §1

[11] = tested on: ragweed (common ragweed, Ambrosia elatior)
In short: as §1

soybean (Glycine max) = tested on: soybean (Glycine max)
In short: as §1

[12] = tested on: velvetleaf (Abutilon theophrasti)
In short: as §1

wild oat (Avena fatua) = tested on: wild oat (Avena fatua)
In short: as §1

[13] = tested on: yellow nutsedge (Cyperus esculentus)
In short: as §1

[14] = 31 g ai/ha, postemergence, scale 0 to 100, 0 is no effect, 100 is complete control
[15] = 62 g ai/ha, postemergence, 0 is no effect, 100 is complete control, 13 to 15 days
[16] = Postemergence, 250 g ai/ha, scale 0 to 100 (0 no effect, 100 complete control)
[17] = Postemergence, 125 g ai/ha, visual rating after 13 to 15 days, scale 0 (no effect) to 100 (complete control)

Q: Which “Plant response rating, Ryegrass, Italian” value [1, 14] does the source give for O=C1CCCC(O)=C1C(=O)c1cnc(-c2ccccc2)n(C2CC2)c1=O [Compound 90] here?
A: 0

Q: What about the “Ryegrass, Italian plant response rating (0 to 100 scale)” value [1, 15] of the same compound?
A: 0

Q: What about the “Plant response rating, Ryegrass, Italian” value [1, 16] of the same compound?
A: 0

Q: What about the “Plant response rating, Surinam Grass” value [2, 14] of the same compound?
A: 65

Q: And the “Surinam Grass plant response rating (0 to 100 scale)” value [2, 15]?
A: 65

Q: And the “Plant response rating, Surinam Grass” value [2, 16]?
A: 75

Q: And the “Plant response rating, Bermudagrass” value [3, 14]?
A: 70

Q: And the “Bermudagrass plant response rating (0 to 100 scale)” value [3, 15]?
A: 80

Q: And the “Plant response rating, Bermudagrass” value [3, 17]?
A: 85

Q: What about the “Plant response rating, Bermudagrass” value [3, 16] of the same compound?
A: 85

Q: And the “Plant response rating, Blackgrass” value [4, 14]?
A: 5

Q: What about the “Blackgrass plant response rating (0 to 100 scale)” value [4, 15] of the same compound?
A: 5

Q: What about the “Plant response rating, Blackgrass” value [4, 17] of the same compound?
A: 5

Q: And the “Plant response rating, Blackgrass” value [4, 16]?
A: 30

Q: What about the “Plant response rating, Cocklebur” value [5, 14] of the same compound?
A: 75

Q: And the “Cocklebur plant response rating (0 to 100 scale)” value [5, 15]?
A: 90

Q: What about the “Plant response rating, Cocklebur” value [5, 17] of the same compound?
A: 100

Q: What about the “Plant response rating, Cocklebur” value [5, 16] of the same compound?
A: 100

Q: And the “Plant response rating, Corn” value (corn (Zea mays); [14])?
A: 15

Q: And the “Corn plant response rating (0 to 100 scale)” value (corn (Zea mays); [15])?
A: 25

Q: What about the “Plant response rating, Corn” value (corn (Zea mays); [17]) of the same compound?
A: 45

Q: And the “Plant response rating, Corn” value (corn (Zea mays); [16])?
A: 75

Q: And the “Plant response rating, Bromegrass, Downy” value [6, 14]?
A: 5

Q: What about the “Bromegrass, Downy plant response rating (0 to 100 scale)” value [6, 15] of the same compound?
A: 5

Q: And the “Plant response rating, Bromegrass, Downy” value [6, 17]?
A: 10

Q: What about the “Plant response rating, Bromegrass, Downy” value [6, 16] of the same compound?
A: 10

Q: What about the “Plant response rating, Foxtail, Green” value [7, 14] of the same compound?
A: 65

Q: And the “Foxtail, Green plant response rating (0 to 100 scale)” value [7, 15]?
A: 65

Q: What about the “Plant response rating, Foxtail, Green” value [7, 16] of the same compound?
A: 90

Q: And the “Plant response rating, Kochia” value (kochia (Kochia scoparia); [14])?
A: 65

Q: And the “Kochia plant response rating (0 to 100 scale)” value (kochia (Kochia scoparia); [15])?
A: 85

Q: And the “Plant response rating, Kochia” value (kochia (Kochia scoparia); [16])?
A: 98

Q: And the “Plant response rating, Lambsquarters” value [8, 14]?
A: 85

Q: And the “Lambsquarters plant response rating (0 to 100 scale)” value [8, 15]?
A: 95

Q: What about the “Plant response rating, Lambsquarters” value [8, 16] of the same compound?
A: 100

Q: What about the “Plant response rating, Crabgrass, Large” value [9, 14] of the same compound?
A: 65

Q: And the “Crabgrass, Large plant response rating (0 to 100 scale)” value [9, 15]?
A: 75

Q: What about the “Plant response rating, Crabgrass, Large” value [9, 17] of the same compound?
A: 75

Q: What about the “Plant response rating, Crabgrass, Large” value [9, 16] of the same compound?
A: 80

Q: What about the “Plant response rating, Pigweed” value [10, 14] of the same compound?
A: 85

Q: And the “Pigweed plant response rating (0 to 100 scale)” value [10, 15]?
A: 98

Q: What about the “Plant response rating, Pigweed” value [10, 16] of the same compound?
A: 100

Q: And the “Plant response rating, Ragweed” value [11, 14]?
A: 60

Q: And the “Ragweed plant response rating (0 to 100 scale)” value [11, 15]?
A: 75

Q: And the “Plant response rating, Ragweed” value [11, 16]?
A: 95

Q: What about the “Plant response rating, Soybean” value (soybean (Glycine max); [14]) of the same compound?
A: 98

Q: And the “Soybean plant response rating (0 to 100 scale)” value (soybean (Glycine max); [15])?
A: 98

Q: And the “Plant response rating, Soybean” value (soybean (Glycine max); [16])?
A: 100

Q: What about the “Plant response rating, Velvetleaf” value [12, 14] of the same compound?
A: 85

Q: And the “Velvetleaf plant response rating (0 to 100 scale)” value [12, 15]?
A: 98

Q: And the “Plant response rating, Velvetleaf” value [12, 16]?
A: 100

Q: And the “Plant response rating, Oat, Wild” value (wild oat (Avena fatua); [14])?
A: 0

Q: What about the “Oat, Wild plant response rating (0 to 100 scale)” value (wild oat (Avena fatua); [15]) of the same compound?
A: 5

Q: And the “Plant response rating, Oat, Wild” value (wild oat (Avena fatua); [16])?
A: 20

Q: And the “Plant response rating, Nutsedge, Yellow” value [13, 14]?
A: 60

Q: What about the “Nutsedge, Yellow plant response rating (0 to 100 scale)” value [13, 15] of the same compound?
A: 65

Q: And the “Plant response rating, Nutsedge, Yellow” value [13, 16]?
A: 75
